The text below walks through data of US12636371B2, “Chemically coupled transporter for low-hydrophobicity bioactive drugs into the central nervous system” (Skybio LLC, priority 2021, dated 2026).

SMILES strings stand for the structures.

One data set addresses D1 dopamine receptor (Homo sapiens, UniProt P21728). Put plainly: D1 receptor agonist assay, cAMP Nomad biosensor, HEK_cAMPNmd_FP650_D1 cells.
In another data set the test system is Bv2 cells. Nature of the data set: MTT cytotoxicity assay in microglial Bv2 cell line. The format is cell-based, murine. The conditions noted are these: 10 and 20 μM, 24 h. Here is the method:
The ability of D9 to induce cytotoxicity was also studied using the MTT assay on Bv2 cells, a microglial cell line derived from the C57/BL6 murine model. For this, Bv2 cells were incubated in the presence and in the absence of different Pegasus concentrations at 37° C. Bv2 cells retain the morphology and functional characteristics of microglia and are therefore a widespread microglial model. These cells are immortalized by v-raf/v-myc carrying J2 retrovirus, and express nuclear v-myc and the cytoplasmic v-raf oncogene products as well as the env gp70 antigen at the surface level.
Bv2 cells were seeded in Poly-L-Lysine-treated 96-well plates at 15,000 cells/well and in 100 μl of DMEM supplemented with 10% Fetal Bovine Serum (FBS) and 1% Antibiotics/Antimycotics (PSA) and incubated for 24 h at 37° C. and 5% CO2. Afterwards, cells were treated with a 25 μl aliquot of a 50 µM and 100 μM Pegasus solution (final concentration in well 10 μM and 20 μM) and incubated for 24 h. To determine cell viability, the colorimetric MTT metabolic activity assay was used as previously described by Mosmann. All experiments were performed in sextuplicate, and the relative cell viability (%) was expressed as a percentage relative to the untreated control condition.

Data set [1] has as its system IL-1β release in Bv2 cells. Put plainly: IL-1β release in LPS-stimulated microglial cells (ELISA). It counts as cell-based, murine. As for the experimental part:
To evaluate the effect of Pegasus on LPS-activated microglia, Bv2 cells were pretreated with Pegasus (D9) (200 μM). After 4 h of treatment, cells were stimulated with LPS (10 μg/mL, final concentration) during 24 h. Doxycycline (Doxy) (200 μM) and Dexamethasone (Dexa) (200 μM) were used as a positive control of anti-inflammatory effects. IL-1β cytokine concentration was measured by ELISA assays (Mouse IL-1 beta ELISA Kit, Cat #BMS6002, Invitrogen), according to instructions provided by the manufacturer.

The target of a further data set is D2 dopamine receptor (Homo sapiens, UniProt P14416). Put plainly: D2 receptor agonist assay, cAMP Nomad biosensor, U2OS_cAMPNmd_FP650_D2 cells. The format is cell-based. The conditions noted are these: 24 h, 10 serial 1:3 dilutions from 30 μM, triplicate; read-out: EC50, D2 receptor activation. Here is the method:
HEK_cAMPNmd_FP650_D1 and U2OS_cAMPNmd_FP650_D2 cells were seeded at a density of 30.000 and 20.000 cells/well, respectively, in 96-well plates. Cells were maintained in DMEM or DMEM-F12 medium supplemented with 10% FBS during 24 h at 37° C. in a humidified 5% CO2 atmosphere.
Cells were then incubated for 24 h.
To detect Nomad biosensor activation, the assay medium was removed and replaced by […] of DPBS with calcium and magnesium. […] In U2OS_cAMPNmd_FP650_D2 cells, images were acquired using the CellInsight CX7 HCS Platform, and the number of fluorescent vesicles per cell was quantified with the HCS Studio Cell Analysis Software.
The effect of the compounds in the regulation of D1 or D2 receptors' activation was analyzed measuring the CAMP signaling using the Nomad biosensor-based assay.
This same experiment was carried out in the U2OS_cAMPNmd_FP650_D2 cell line (FIG. 10). The effect of the compounds was analyzed quantifying the number of fluorescent vesicles in the cytoplasm of the cells using the HCS Studio Cell Analysis Software.

Data set [2] relates to SH-SY5Y cells. Put plainly: MTT cytotoxicity assay in neuroblastoma SH-SY5Y cells. It counts as cell-based. The conditions noted are these: 1, 10 and 20 μM, 24 h. Here is the method: The impact of Pegasus (D9) on cellular viability was studied in SH-SY5Y neuroblastoma cell lines using the colorimetric Thiazolyl Blue Tetrazolium […] (MTT) metabolic activity assay (Mosmann T. Rapid colorimetric assay for cellular growth and survival: application to proliferation and cytotoxicity assays. J Immunol Methods 1983; 65(1-2): 55-63), which reports viable cell number based on mitochondrial activity.
SH-SY5Y cells were seeded in 96-well plates at 15,000 cells/well with 100 μl of DMEM supplemented with 10% Fetal Bovine Serum (FBS) and 1% Antibiotics/Antimycotics, and incubated for 24 h at 37° C. and 5% CO2. Afterwards, cells were treated with a 25 μl aliquot of a D9 solution 5 μM, 50 μM or 100 μM (final concentration in well 1 μM, 10 μM and 20 μM, respectively) and incubated for 24 h. To determine cell viability, the MTT assay was used as previously described by Mosmann (1983). All experiments were performed in sextuplicate, and the relative cell viability (%) was expressed as a percentage relative to the untreated control condition.

In data set [3] the test system is SH-SY5Y cells. Nature of the data set: CellROX assay of intracellular reactive oxygen species induced by ASf. The format is cell-based. The conditions noted are these: 24 h. Here is the method: In order to characterize the antioxidant properties of D9, its protective action on the AS-induced production of reactive oxygen species (ROS) in a cellular model was assessed. For this, SH-SY5Y cells were treated with fibrils of AS (ASf) (AS incubated 120 h at 37° C. and 600 rpm), and the reactive oxygen species produced were examined using the CellROX® Orange Reagent (Invitrogen), which undergoes oxidation by ROS to form a stable fluorescent compound.
In addition, cells were also treated with doxycycline 10 μM+7 μM ASf (ASf+Doxy) as a positive control, and 10 μM doxycycline alone (Doxy). All conditions were incubated 24 h at 37° C. and 5% CO2. […] Fluorescent images of randomly chosen fields were acquired with identical acquisition parameters using a Zeiss Axio Vert.A1 inverted fluorescence microscope.

D2 dopamine receptor, sequence (P14416 whole entry): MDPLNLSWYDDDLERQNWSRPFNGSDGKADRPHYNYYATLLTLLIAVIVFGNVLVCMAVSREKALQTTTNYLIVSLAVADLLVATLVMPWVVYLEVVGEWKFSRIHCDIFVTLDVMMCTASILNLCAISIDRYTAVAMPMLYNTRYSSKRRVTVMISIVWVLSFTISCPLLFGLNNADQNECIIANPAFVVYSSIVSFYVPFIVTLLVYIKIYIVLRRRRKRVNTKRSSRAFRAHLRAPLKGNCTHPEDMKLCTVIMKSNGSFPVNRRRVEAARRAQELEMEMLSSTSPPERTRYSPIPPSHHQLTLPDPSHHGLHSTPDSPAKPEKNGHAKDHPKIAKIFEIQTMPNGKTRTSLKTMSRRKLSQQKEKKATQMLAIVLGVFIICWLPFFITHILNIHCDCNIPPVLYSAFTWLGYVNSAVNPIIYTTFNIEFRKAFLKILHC
D1 dopamine receptor, sequence (P21728 whole entry): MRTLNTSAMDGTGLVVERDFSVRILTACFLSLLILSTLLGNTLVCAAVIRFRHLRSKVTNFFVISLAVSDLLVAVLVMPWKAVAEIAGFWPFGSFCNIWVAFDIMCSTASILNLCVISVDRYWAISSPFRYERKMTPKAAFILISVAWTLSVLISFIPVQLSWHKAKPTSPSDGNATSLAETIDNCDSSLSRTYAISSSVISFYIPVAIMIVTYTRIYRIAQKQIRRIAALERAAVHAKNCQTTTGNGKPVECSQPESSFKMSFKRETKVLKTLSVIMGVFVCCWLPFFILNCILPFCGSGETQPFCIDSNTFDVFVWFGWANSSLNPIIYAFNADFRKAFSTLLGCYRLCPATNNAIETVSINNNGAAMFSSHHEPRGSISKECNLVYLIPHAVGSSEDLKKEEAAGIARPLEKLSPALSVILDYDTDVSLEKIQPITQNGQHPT

As for `C[C@H]1c2ccc(NC(=O)CCC(=O)NCCc3ccc(O)c(O)c3)c(O)c2C(=O)C2=C(O)[C@]3(O)C(=O)C(C(N)=O)=C(O)CC3[C@@H](O)C21` (some centres unmarked) [Pegasus], the EC50 on D1 dopamine receptor is 2.8 µM; at D2 dopamine receptor, 11.3 µM. For the same compound, the figures for the “Cytotoxicity (relative cell viability, MTT)” value with Bv2 cells and with SH-SY5Y cells [2] were “did not induce cell toxicity” and “no cytotoxic effect”, respectively. For the same compound, the “IL-1β production after LPS stimulation” value in data set [1] (200 μM pretreatment 4 h, then LPS 10 μg/mL 24 h) was “reduced production of IL-1β”. The “IL-1β release, compound alone” value in data set [1] (compound alone, no LPS) is recorded as “did not lead to a significantly increase of IL-1β release”. Moreover, in the data set on SH-SY5Y cells [3] (7 μM ASf + 10 μM compound), the “Intracellular ROS induced by ASf in presence of compound” value is “no increase in ROS production was observed”. Moreover, the “Intracellular ROS induced by compound alone” value in the data set on SH-SY5Y cells [3] (human, 10 μM) is “neither the presence of D9 nor doxycycline induced intracellular ROS”.
